Measurements: patent publication US10196356B2, “Mixed disulfide conjugates of thienopyridine compounds and uses thereof” (The Regents of the University of Michigan, priority 2013, dated 2019)

What was measured:
[1] = system: platelets (P2Y12 receptor); assay: Ex vivo anti-platelet activity of the mixed disulfide conjugates (ADP-induced aggregation, aggregometer); format: cell-based, New Zealand white rabbits; conditions: 10 μM ADP; for inhibition of platelet aggregation, conjugate itself: not treated with GSH
Experimental: The mixed disulfide conjugates were prepared and purified from the reaction mixtures in the presence of 0.3 mM CPT and NPT, along with three control samples containing either 1 mM GSH, no thiol reductant or no G6PD. All samples were re-suspended in 0.5 ml PPP, some of which were treated to 1 mM GSH to release the AM. Platelet aggregation was initiated by the addition of 10 μM ADP and recorded with an aggregometer. The percentage of aggregation was normalized to that of PRP and averaged over four separate measurements. For details, see Materials and Methods. Legend: PRP, untreated platelet-rich plasma; GSH, 1 mM GSH in PRP; −G6PD, metabolites produced in the absence of G6PD; —SH, metabolites produced in the absence of any thiol reductants; GSH, metabolites produced in the presence of 1 mM GSH; CPT, metabolites produced in the presence of 0.3 mM CPT; CPT+GSH, metabolites produced in the presence of 0.3 mM CPT and then treated with 1 mM GSH; NPT, metabolites produced in the presence of 0.3 mM NPT; NPT+GSH, metabolites produced in the presence of 0.3 mM NPT and then treated with 1 mM GSH.
In order to generate sufficient quantities of the mixed disulfide conjugates, the metabolism of 2-oxoclopidogrel was performed in 2-ml reaction mixtures containing 1 mg/ml HLM, 0.1 mM 2-oxoclopidogrel, the NADPH-regenerating system, and 0.3 mM CPT or NPT or 1 mM GSH. The reaction was initiated by the addition of 10 units G6PD and incubated at 37° C. for 50 min. Two control samples were prepared in parallel. […] After an incubation of 50 min, the reaction mixtures were centrifuged at 13,000×g to remove the HLMs. The supernatants were loaded onto SPE C18 cartridges to enrich the mixed disulfide conjugates. After extensive washing with water to remove salts and other water-soluble metabolites, the conjugate samples were eluted with 2 ml of methanol. The methanolic fractions were dried using a Speedvac concentrator and the dried samples were then re-suspended in 1 ml of platelet-poor plasma (PPP). Prior to the anti-platelet activity assays, the re-suspended conjugates were divided into two equal volumes (0.5 ml each), one of which was treated with 1 mM GSH at 37° C. for 30 min to generate the AM. Both samples were then placed on ice until use.
The procedures used to determine ex vivo anti-platelet activity were previously reported (see, e.g., Abell L M and Liu E C (2011) J Pharm Exp Ther 339(2):589-596).
Male New Zealand white rabbits (2.2-2.9 kg) were used as blood donors. Whole blood was drawn from a central ear artery into a plastic syringe containing 3.7% sodium citrate as the anticoagulant (1:10 volume ratio of citrate to blood). A whole blood cell count was determined with a Medonic CA620 hematology analyzer (Clinical Diagnostic Solutions, Inc., Plantation, Fla., USA). Platelet-rich plasma (PRP), the supernatant present after centrifugation of whole blood at 100×g for 10 min, was diluted with PPP to achieve a platelet count of approximately 300,000/μl. Platelet-poor plasma was prepared by centrifuging the remaining blood at 1,500×g for 10 min and discarding the bottom cellular layer. The diluted PRP was divided into 0.5 ml samples, centrifuged again at 170×g for 10 mins, and the resulting supernatant was discarded. The platelet pellets were re-suspended in platelet-poor plasma containing the various chemical inhibitors prepared as described previously and incubated with gentle shaking at 37° C. for 60 min to modify the P2Y12 receptor. Ex vivo platelet aggregation was assessed by established nephelometric methods with the use of a 4-channel aggregometer (BioData PAP-4; BioData Corp., Horsham, Pa., USA) by recording the increase in light transmission through a stirred suspension of PRP maintained at 37° C. Platelet aggregation was induced with ADP (10 μM). A subaggregatory concentration of epinephrine (550 nM) was used to prime the platelets before addition of the agonist.

[2] = Kinetics for the reduction of the mixed disulfide conjugates of clopidogrel by GSH (conversion to the AM); format: in vitro ADME; conditions: for first order rate constant for the loss of the mixed disulfide conjugate: 0.2 mg/ml cytosol, 37° C.; for second order rate constant for the loss of the conjugate: equivalent from pseudo first order with 1 mM GSH, with cytosol
Experimental: The mixed disulfide conjugates were prepared from the reaction mixtures containing 1 mg/ml HLM, 0.1 mM 2-oxoclopidogrel, the NADPH-regenerating system and various thiol reductants and purified using SPE C18 cartridges as described in Materials and Methods. The purified conjugates were then mixed with 1 mM GSH and 0.2 mg/ml cytosol (when present). The conjugate remaining and the AM formed were analyzed using LC-MS/MS. Legend: (A) reduction of the conjugates of BME (◯), CPT (▪), NAC (▾), DFT (▴), and NPT (□) by 1 mM GSH in the presence of 0.2 mg/ml cytosol. (B) reduction of the CPT conjugate by 1 mM GSH in the presence and absence of 0.2 mg/ml cytosol. Legend: (◯), formation of AM in the absence of cytosol; (Δ), formation of the AM in the presence of cytosol; (●), reduction of the conjugate in the absence of cytosol; (▴), reduction of the conjugate in the presence of cytosol. The solid and dashed lines are non-linear curve fittings to a single exponential function.
To examine the reactivity of the mixed disulfide conjugates, the kinetics for the reduction of the mixed disulfide conjugates by GSH were determined. The mixed disulfide conjugates were generated in 1 ml of 50 mM KPi buffer (pH 7.4) buffer containing 1 mg/ml HLM, 0.1 mM 2-oxoclopidogrel and 0.3 or 1 mM thiol reductants. The reaction was incubated at 37° C. for 50 min after initiated by the addition of G6PD. The reaction mixture was then centrifuged at 13,000×g to remove the HLMs and the supernatant was loaded to a pre-conditioned SPE cartridge (C18, 100 mg/1 ml, Agilent Technologies, CA) and the mixed disulfide conjugate was eluted with 2 ml of methanol. The eluent was then dried using a Speedvac concentrator and the dried sample was stored at −80° C. until use. Prior to the kinetic measurements, the dried samples were first re-dissolved in 0.5 ml of 50 mM KPi buffer (pH 7.4) and then equilibrated at 37° C. for 5 min. Small aliquots (1-5 μl) of stock GSH and cytosol (when present) solutions were added to the conjugate samples at 1 mM and 0.2 mg/ml, respectively, to initiate the thiol-disulfide exchange reaction. At designated times, an aliquot of 50 μl of the reaction mixture was withdrawn and mixed with 25 μl of 10% acetic acid in acetonitrile to terminate the thiol-disulfide exchange reaction. The t=0 sample was prepared immediately prior to the addition of GSH. The amounts of the mixed disulfide conjugates and the AM were analyzed using LC-MS/MS as described above.

platelets = assay: Platelet aggregation assay with conjugates pre-incubated with GSH (Example III); format: cell-based, rabbits; conditions: 5 μM ADP; for inhibition of platelet aggregation: conjugate incubated with 1 mM GSH 37° C. 30 min, compared with negative control without conjugate
Experimental: Approximately 20 ml blood was drawn from rabbits and platelets were collected by centrifugation whereas the supernatants were collected as platelet poor plasma (PPP). Prior to the inhibition assay, the conjugates of Clop-CPT and Tic-NPT were dissolved in 0.5 ml PPP and incubated with 1 mM GSH at 37° C. for 30 min to produce the active metabolite. The platelets were then re-suspended gently in the PPP containing the active metabolite. After incubation at 37° C. for one hour, platelet aggregation was initiated by the addition of 5 μM of the agonist ADP. Platelet aggregation was then recorded using an aggregometer.

[3] = conjugate treated with 1 mM GSH 37° C. 30 min, normalized to PRP
[4] = 1 mM GSH, in the absence of cytosol
[5] = 1 mM GSH, in the presence of cytosol (FIG. 5B)

For `COC(=O)C(c1ccccc1Cl)N1CCC(SSc2ncccc2[N+](=O)[O-])C(=CC(=O)O)C1` (stereo not drawn) [NPT conjugate], the “inhibition of platelet aggregation” value [1, 3] was about 70%, the “inhibition of platelet aggregation, conjugate itself” value ([1]; normalized to PRP) was “did not inhibit platelet aggregation” and the “first order rate constant for the loss of the mixed disulfide conjugate” value (shortened to “first order rate constant for the loss”) ([2]; 1 mM GSH) was 0.13 min⁻¹. The “second order rate constant for the loss of the conjugate” value (from here on “second order rate constant for the loss”) [2] was 2.2 M⁻¹ s⁻¹.
In the case of `O=C(O)/C=C1/CN(Cc2ccccc2Cl)CCC1SSc1ncccc1[N+](=O)[O-]` (stereo not drawn) [Tic-NPT, (Z)-2-(1-(2-chlorobenzyl)-4-((3-nitropyridin-2-yl)disulfanyl)piperidin-3-ylidene)acetic acid], the “inhibition of platelet aggregation” value (platelets) is reported as “approximately 60%”.
With `COC(=O)[C@H](c1ccccc1Cl)N1CCC2SC(=O)C=C2C1` (stereo partly drawn) [2-oxoclopidogrel, reference compound] the “inhibition of platelet aggregation” value ([1]; −G6PD control (non-metabolite components of the reaction mixture)) was “did not inhibit platelet aggregation”.
In the case of `COC(=O)C(c1ccccc1Cl)N1CCC(SSCC(NC(C)=O)C(=O)O)C(=CC(=O)O)C1` (stereo not drawn) [NAC conjugate], the “first order rate constant for the loss” value ([2]; 1 mM GSH) is reported as 0.43 min⁻¹ and the “second order rate constant for the loss” value [2] is reported as 7.2 M⁻¹ s⁻¹.
With `COC(=O)C(c1ccccc1Cl)N1CCC(SSc2ccc(Cl)nn2)/C(=C\C(=O)O)C1` (stereo not drawn) [Clop-CPT] the “inhibition of platelet aggregation” value [1, 3] was about 50%, the “inhibition of platelet aggregation, conjugate itself” value ([1]; normalized to PRP) was “did not inhibit platelet aggregation” and the “first order rate constant for the loss” value ([2]; 1 mM GSH) was 0.79 min⁻¹. The “rate constant for the formation of the AM” value [2, 4] was 0.35 min⁻¹, the “rate constant for the reduction of the conjugate” value [2, 4] was 0.39 min⁻¹ and the “rate constant for the formation of the AM” value [2, 5] was 0.50 min⁻¹. For the same compound, the “rate constant for the reduction of the conjugate” value [2, 5] was 0.73 min⁻¹, the “second order rate constant for the loss” value [2] was 13 M⁻¹ s⁻¹ and the “inhibition of platelet aggregation” value (platelets) was “approximately 60%”.
In the case of `COC(=O)[C@H](c1ccccc1Cl)N1CCC(SSCCO)C(=CC(=O)O)C1` (stereo partly drawn) [BME conjugate], the “first order rate constant for the loss” value ([2]; 1 mM GSH) is reported as 0.07 min⁻¹, the “conjugate remaining after incubation” value ([2]; 40 min, 1 mM GSH, cytosol) is reported as about 50% and the “second order rate constant for the loss” value [2] is reported as 1.2 M⁻¹ s⁻¹.
In the case of `COC(=O)[C@H](c1ccccc1Cl)N1CCC(S)/C(=C\C(=O)O)C1` (stereo partly drawn) [AM, reference compound], the “inhibition of platelet aggregation” value ([1]; sample from HLM reaction mixture containing 1 mM GSH (AM, estimated 1-4 μM)) is reported as about 60% and the “level of inhibition of platelet aggregation relative to the conjugates” value (platelets; positive control: active metabolite generated from HLMs) is reported as “approximately the same”.
In the case of `COC(=O)[C@H](c1ccccc1Cl)N1CCC(SSc2cc(C)oc2C)C(=CC(=O)O)C1` (stereo partly drawn) [DFT conjugate], the “first order rate constant for the loss” value ([2]; 1 mM GSH) is reported as 1.65 min⁻¹ and the “second order rate constant for the loss” value [2] is reported as 28 M⁻¹ s⁻¹.
